Target: T1, TYK2 (Homo sapiens, UniProt P29597)
T1 construct: Degradation of TYK2 in cells was quantitatively measured using Meso Scale Discovery (MSD) technology; endogenous in cells; host or cells: OCI-LY10
Experiment: TYK2 MSD degradation in OCI-LY10 cells
Assay type: cell-based
Conditions: TYK2 degradation in OCI-LY10 cells, 4 to 24 hours incubation; for DC50: read-out: TYK2 MSD OCI-LY10 Rel-DC50
Procedure, shortened: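 Cellular TYK2 levels were measured by Meso Scale Discovery sandwich detection in RIPA lysates of OCI-LY10 cells exposed 4 to 24 hours at 37° C to nine 1:3 compound doses starting at 1 to 10 μM final; dose-response fitted by four-parameter regression.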

T1 sequence (P29597 whole entry): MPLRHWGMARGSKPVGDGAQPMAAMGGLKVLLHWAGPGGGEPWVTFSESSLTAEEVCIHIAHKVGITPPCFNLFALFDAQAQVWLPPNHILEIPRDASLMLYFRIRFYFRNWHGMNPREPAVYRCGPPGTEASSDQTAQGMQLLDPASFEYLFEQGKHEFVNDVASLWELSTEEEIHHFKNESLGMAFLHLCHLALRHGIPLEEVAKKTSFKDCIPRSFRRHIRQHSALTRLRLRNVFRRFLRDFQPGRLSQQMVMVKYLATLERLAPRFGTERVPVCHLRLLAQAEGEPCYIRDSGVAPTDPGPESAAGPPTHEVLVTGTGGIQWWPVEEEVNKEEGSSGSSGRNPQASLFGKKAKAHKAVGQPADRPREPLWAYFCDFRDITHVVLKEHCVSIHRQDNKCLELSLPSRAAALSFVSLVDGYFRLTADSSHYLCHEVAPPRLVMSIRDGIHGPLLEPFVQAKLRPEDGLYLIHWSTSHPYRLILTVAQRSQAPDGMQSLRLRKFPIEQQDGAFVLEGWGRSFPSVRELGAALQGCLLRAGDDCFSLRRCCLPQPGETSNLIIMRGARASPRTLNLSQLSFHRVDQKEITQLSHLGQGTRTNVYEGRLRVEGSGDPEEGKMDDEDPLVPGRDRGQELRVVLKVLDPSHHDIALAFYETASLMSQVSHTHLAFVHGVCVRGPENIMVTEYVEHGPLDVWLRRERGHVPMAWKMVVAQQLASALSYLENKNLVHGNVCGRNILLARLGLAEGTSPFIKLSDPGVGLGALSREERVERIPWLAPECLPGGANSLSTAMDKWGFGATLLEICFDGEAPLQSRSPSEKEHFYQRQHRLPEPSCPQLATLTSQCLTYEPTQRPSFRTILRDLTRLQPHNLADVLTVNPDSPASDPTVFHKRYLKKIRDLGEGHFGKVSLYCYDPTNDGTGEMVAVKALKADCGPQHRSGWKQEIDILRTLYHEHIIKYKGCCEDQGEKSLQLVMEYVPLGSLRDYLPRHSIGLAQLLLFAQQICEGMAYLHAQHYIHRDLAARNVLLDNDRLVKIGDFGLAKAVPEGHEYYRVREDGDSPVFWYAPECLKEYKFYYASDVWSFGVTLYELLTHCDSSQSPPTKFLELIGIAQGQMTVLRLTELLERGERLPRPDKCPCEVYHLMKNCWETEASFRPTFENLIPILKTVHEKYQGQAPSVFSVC

Row | Structure (SMILES) | TYK2 MSD OCI-LY10 Dmax % | DC50 [nM] | Dmax [%]
1 | CNc1cc(N2CCc3c(-c4ncc(CN5CC6(CCN(C(=O)c7cc(N8CCC(=O)NC8=O)c(C)cc7F)CC6(F)F)C5)cc4F)cccc32)nn2c(C(=O)NC3CCC3OC)cnc12 (centres unmarked) [I-1007] | A (A (>90%)) | < 1 | 
2 | CNc1cc(N2CCc3c(-c4ncc(CN5CC6(CCN(C(=O)c7cc(Cl)c(C)c(N8CCC(=O)NC8=O)c7)CC6(F)F)C5)cc4F)cccc32)nn2c(C(=O)N[C@@H]3C[C@@H]3F)cnc12 [I-1008, 6-(4-(5-((7-(3-chloro-5-(2,4-dioxotetrahydropyrimidin-1(2H)-yl)-4-methylbenzoyl)-5,5-difluoro-2,7-diazaspiro[3.5]nonan-2-yl)methyl)-3-fluoropyridin-2-yl)indolin-1-yl)-N-((1R,2S)-2-fluorocyclopropyl)-8-(methylamino)imidazo[1,2-b]pyridazine-3-carboxamide] |  | < 1 | > 90
3 | CNc1cc(N2CCc3c(-c4ccc(CN5CCC6(CCC(N(C)c7ccc(Cl)c(N8CCC(=O)NC8=O)c7)CC6)CC5)cn4)cccc32)nn2c(C(=O)N[C@@H]3CC[C@H]3OC)cnc12 [I-1009] | B (B (90 to >75%)) | < 10 | 
4 | CNc1cc(N2CCc3c(-c4ccc(CN5CCC6(CCC(Oc7ccc(Cl)c(N8CCC(=O)NC8=O)c7)CC6)C(F)(F)C5)cn4)cccc32)nn2c(C(=O)NC3CCC3OC)cnc12 (centres unmarked) [I-1010] | B (B (90 to >75%)) | < 10 | 
5 | CNc1cc(N2CCc3c(-c4ccc(CN5CC6(CCN(Cc7ccc(Cl)c(N8CCC(=O)NC8=O)c7)CC6(F)F)C5)cn4)cccc32)nn2c(C(=O)NC3CCC3OC)cnc12 (centres unmarked) [I-1011] | B (B (90 to >75%)) | < 10 | 
6 | CNc1cc(N2CCc3c(-c4ncc(CN5CC6(CCN(C(=O)c7cc(N8CCC(=O)NC8=O)c(C)cn7)CC6(F)F)C5)cc4F)cccc32)nn2c(C(=O)N[C@@H]3C[C@@H]3F)cnc12 [I-1012] | A (A (>90%)) | < 1 | 
7 | CNc1cc(N2CCc3c(-c4ncc(CN5CC6(CCN(C(=O)c7cc(F)c(C)c(N8CCC(=O)NC8=O)c7)CC6(F)F)C5)cc4F)cccc32)nn2c(C(=O)N[C@@H]3C[C@@H]3F)cnc12 [I-1016] | A (A (>90%)) | < 1 | 
8 | CNc1cc(N2CCc3c(-c4ccc(OC5CC6(CCN(C(=O)c7cc(C)c(Cl)c(N8CCC(=O)NC8=O)c7)CC6)C5)cn4)cccc32)nn2c(C(=O)N[C@@H]3C[C@@H]3F)cnc12 [I-1017] | B (B (90 to >75%)) | < 10 | 
9 | CNc1cc(N2CCc3c(-c4ncc(CN5CC6(CCN(C(=O)c7ccc(C)c(N8CCC(=O)NC8=O)c7)CC6(F)F)C5)cc4F)cccc32)nn2c(C(=O)N[C@@H]3C[C@@H]3F)cnc12 [I-1018] | A (A (>90%)) | < 1 | 
10 | CNc1cc(N2CCc3c(-c4ncc(CN5CC6(CCN(C(=O)c7ccc(OC)c(N8CCC(=O)NC8=O)c7)CC6(F)F)C5)cc4F)cccc32)nn2c(C(=O)N[C@@H]3C[C@@H]3F)cnc12 [I-1019] | A (A (>90%)) | < 1 | 
11 | CNc1cc(N2CCc3c(CN4CCC(N5CCC6(CCN(C(=O)c7cc(N8CCC(=O)NC8=O)c(C)cn7)CC6)CC5)C(F)(F)C4)cccc32)nn2c(C(=O)N[C@@H]3C[C@@H]3F)cnc12 (some centres unmarked) [I-1022] | B (B (90 to >75%)) | < 1 | 
12 | CNc1cc(N2CCc3c(-c4ncc(CN5CC6(CCN(C(=O)c7ccc(Cl)c(N8CCC(=O)NC8=O)c7)CC6(F)F)C5)cc4F)cccc32)nn2c(C(=O)N[C@@H]3C[C@@H]3F)cnc12 [I-1023] | A (A (>90%)) | < 1 | 
13 | CNc1cc(N2CCc3c(-c4ncc(CN5CC6(CCN(C(=O)c7cc(Cl)c(C)c(N8CCC(=O)NC8=O)c7)CC6(F)F)C5)cc4F)cc(F)cc32)nn2c(C(=O)NC3CCC3OC)cnc12 (centres unmarked) [I-1038] | A (A (>90%)) | < 1 | 
14 | CNc1cc(N2CCc3c(CN4CCC(N5CCC(C6CCN(C(=O)c7cc(C)c(Cl)c(N8CCC(=O)NC8=O)c7)CC6)CC5)C(F)(F)C4)cccc32)nn2c(C(=O)N[C@@H]3CC[C@H]3OC)cnc12 (some centres unmarked) [I-1066] | A (A (>90%)) | < 1 | 
15 | CNc1cc(N2CCc3c(CN4CCC(N5CC6(CCN(C(=O)c7cc(Cl)c(C)c(N8CCC(=O)NC8=O)c7)CC6)C5)C(F)(F)C4)cccc32)nn2c(C(=O)N[C@@H]3CC[C@H]3OC)cnc12 (some centres unmarked) [I-1068] | A (A (>90%)) | < 1 | 
16 | CNc1cc(N2CCc3c(CN4CCC(N5CCC(C6CCN(C(=O)c7ccc(Cl)c(N8CCC(=O)NC8=O)c7)CC6)CC5)C(F)(F)C4)cccc32)nn2c(C(=O)N[C@@H]3CC[C@H]3OC)cnc12 (some centres unmarked) [I-1069] | A (A (>90%)) | < 1 | 
17 | CNc1cc(N2CCc3c(-c4ccc(CN5CC6(CCN(C(=O)c7cc(C)c(Cl)c(N8CCC(=O)NC8=O)c7)CC6(F)F)C5)cn4)cccc32)nn2c(C(=O)NC(C)c3ncco3)cnc12 (centres unmarked) [I-1072] | B (B (90 to >75%)) | < 10 | 

Row | Structure (SMILES) | TYK2 MSD OCI-LY10 Dmax % | DC50 [nM] | Dmax [%]
18 | CNc1cc(N2CCc3c(CN4CCC(N5CC6(CCN(C(=O)c7cc(C)c(Cl)c(N8CCC(=O)NC8=O)c7)CC6)C5)C(F)(F)C4)cccc32)nn2c(C(=O)N[C@@H]3CC[C@H]3OC)cnc12 (some centres unmarked) [I-1073] | A (A (>90%)) | < 1 | 
19 | CNc1cc(N2CCc3c(CN4CCC(CN5CCC6(CC5)CCN(C(=O)c5ccc(Cl)c(N7CCC(=O)NC7=O)c5)CC6)C(F)(F)C4)cccc32)nn2c(C(=O)N[C@@H]3CC[C@H]3OC)cnc12 (stereo partly drawn) [I-1074, 6-(4-{[4-({9-[14-chloro-3-(2,4-dioxo-1,3-diazinan-1-yl)benzoyl]-3,9-diazaspiro[5.5]undecan-3-yl}methyl)-3,3-difluoropiperidin-1-yl]methyl}-2,3-dihydroindol-1-yl)-N-[(1R,2R)-2-methoxycyclobutyl]-8-(methylamino)imidazo[1,2-b]pyridazine-3-carboxamide] |  | < 1 | > 90
20 | CNc1cc(N2CCc3c(-c4ccc(CN5CC6(CCN(C(=O)c7cc(C)c(Cl)c(N8CCC(=O)NC8=O)c7)CC6(F)F)C5)cn4)cccc32)nn2c(C(=O)NCc3ncco3)cnc12 [I-1077] | B (B (90 to >75%)) | < 1 | 
21 | CNc1cc(N2CCc3c(CN4CCC(N5CCC6(CCN(C(=O)c7cc(F)c(Cl)c(N8CCC(=O)NC8=O)c7)CC6)CC5)C(F)(F)C4)cccc32)nn2c(C(=O)NC3CCC3OC)cnc12 (centres unmarked) [I-1078] | A (A (>90%)) | < 1 | 
22 | CNc1cc(N2CCc3c(CN4CCC(N5CCC6(CCN(C(=O)c7cc(F)c(C)c(N8CCC(=O)NC8=O)c7)CC6)CC5)C(F)(F)C4)cccc32)nn2c(C(=O)N[C@@H]3CC[C@H]3OC)cnc12 (some centres unmarked) [I-1081] | A (A (>90%)) | < 1 | 
23 | CNc1cc(N2CCc3c(-c4ccc(CN5CCC6(CCN(C(=O)c7ccc(Cl)c(N8CCC(=O)NC8=O)c7)C6)C(F)(F)C5)cn4)cccc32)nn2c(C(=O)N[C@@H]3C[C@@H]3F)cnc12 (some centres unmarked) [I-1082] | B (B (90 to >75%)) | < 1 | 
24 | CNc1cc(N2CCc3c(CN4CCC(N5CCC6(CCN(C(=O)c7cc(N8CCC(=O)NC8=O)c(Cl)cc7F)CC6)CC5)C(F)(F)C4)cccc32)nn2c(C(=O)N[C@@H]3CC[C@H]3OC)cnc12 (some centres unmarked) [I-1084] | A (A (>90%)) | < 1 | 
25 | CNc1cc(N2CCc3c(-c4ccc(CN5CCC6(CCN(C(=O)c7ccc(Cl)c(N8CCC(=O)NC8=O)c7)CC6)C(F)(F)C5)cn4)cccc32)nn2c(C(=O)N[C@H]3CC[C@@H]3C(F)(F)F)cnc12 [I-1103] | D (D (<50%)) | 10 to 100 | 
26 | CNc1cc(N2CCc3c(-c4ccc(CC5CC6(CCN(C(=O)c7cc(F)c(Cl)c(N8CCC(=O)NC8=O)c7)CC6)C5)cn4)cccc32)nn2c(C(=O)N[C@@H]3CC[C@H]3OC)cnc12 [I-1104] | A (A (>90%)) | < 10 | 
27 | CNc1cc(N2CCc3c(-c4ncc(CN5CCC6(CCN(C(=O)c7cc(C)c(Cl)c(N8CCC(=O)NC8=O)c7)CC6)C(F)(F)C5)cc4F)cccc32)nn2c(C(=O)N[C@@H]3CC[C@H]3OC)cnc12 [I-1106] | A (A (>90%)) | < 10 | 
28 | CNc1cc(N2CCc3c(-c4ccc(CC5CCC6(CC5)CCN(C(=O)c5cc(C)c(Cl)c(N7CCC(=O)NC7=O)c5)CC6)cn4)cccc32)nn2c(C(=O)N[C@@H]3CC[C@H]3OC)cnc12 [I-1107] | A (A (>90%)) | < 10 | 
29 | CNc1cc(N2CCc3c(-c4ccc(CN5CCC6(CCN(C(=O)c7ccc(Cl)c(N8CCC(=O)NC8=O)c7)CC6)C(F)(F)C5)cn4)cccc32)nn2c(C(=O)N[C@@H]3CC[C@H]3C(F)(F)F)cnc12 [I-1108] | D (D (<50%)) | > 100 | 
30 | CNc1cc(N2CCc3c(CN4CCC(N5CCC6(CCN(C(=O)c7cc(C)c(Cl)c(N8CCC(=O)NC8=O)c7)CC6)CC5)C(F)(F)C4)cc(F)cc32)nn2c(C(=O)N[C@@H]3CC[C@H]3OC)cnc12 (some centres unmarked) [I-1114] | A (A (>90%)) | < 1 | 
31 | CNc1cc(N2CCc3c(CN4CCC(N5CCC6(CCN(C(=O)c7cc(C)c(Cl)c(N8CCC(=O)NC8=O)c7)CC6)CC5)C(F)(F)C4)cc(Cl)cc32)nn2c(C(=O)N[C@@H]3CC[C@H]3OC)cnc12 (some centres unmarked) [I-1116] | B (B (90 to >75%)) | < 10 | 
32 | CNc1cc(N2CCc3c(-c4ccc(CN5CC6(CCN(C(=O)c7cc(C)c(Cl)c(N8CCC(=O)NC8=O)c7)CC6(F)F)C5)cn4)cccc32)nn2c(C(=O)N[C@H]3CCC[C@@H]3OC)cnc12 [I-1117] | D (D (<50%)) | > 100 | 
33 | CNc1cc(N2CCc3c(-c4ccc(CN5CCC6(CCN(C(=O)c7ccc(Cl)c(N8CCC(=O)NC8=O)c7)CC6)C(F)(F)C5)cn4)cccc32)nn2c(C(=O)NC3CC(C(F)(F)F)C3)cnc12 (centres unmarked) [I-1118] | C (C (75 to 50%)) | 10 to 100 | 
34 | CNc1cc(N2CCc3c(-c4ccc(CC5(F)CC6(CCN(C(=O)c7cc(N8CCC(=O)NC8=O)c(C)cc7F)CC6)C5)cn4)cccc32)nn2c(C(=O)N[C@@H]3CC[C@H]3OC)cnc12 [I-1121] | A (A (>90%)) | < 1 | 

— patent US20260125400A1, “TYK2 DEGRADERS AND USES THEREOF” (Kymera Therapeutics, Inc., priority 2023, published 2026)
